Test results from PubChem BioAssay (NCI).
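A five-concentration, 48-hour dose response in 96-well plates underlies each endpoint, interpolated linearly between surrounding concentrations. GI50: concentration for 50% inhibition of growth. The concentration for full growth arrest is given as TGI.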

How the values were obtained:
Assay in all cases: DTP human tumour cell line panel, 48 h
M14 melanoma = system: M14 melanoma
NCI-H522 lung = system: NCI-H522 lung
TK-10 renal = system: TK-10 renal
HOP-62 NSCLC = system: HOP-62 NSCLC
MDA-MB-435 = system: MDA-MB-435
OVCAR-3 ovarian = system: OVCAR-3 ovarian
CAKI-1 renal = system: CAKI-1 renal
DU-145 prostate = system: DU-145 prostate
SK-MEL-5 melanoma = system: SK-MEL-5 melanoma
786-0 renal = system: 786-0 renal

| SMILES | GI50 (M14 melanoma) [µM] | TGI (M14 melanoma) [µM] | GI50 (NCI-H522 lung) [µM] | TGI (NCI-H522 lung) [µM] | GI50 (TK-10 renal) [µM] | TGI (TK-10 renal) [µM] | GI50 (HOP-62 NSCLC) [µM] | TGI (HOP-62 NSCLC) [µM] | GI50 (MDA-MB-435) [µM] | TGI (MDA-MB-435) [µM] | GI50 (OVCAR-3 ovarian) [µM] | TGI (OVCAR-3 ovarian) [µM] | GI50 (CAKI-1 renal) [µM] | TGI (CAKI-1 renal) [µM] | GI50 (DU-145 prostate) [µM] | TGI (DU-145 prostate) [µM] | GI50 (SK-MEL-5 melanoma) [µM] | TGI (SK-MEL-5 melanoma) [µM] | GI50 (786-0 renal) [µM] | TGI (786-0 renal) [µM] |
| --- | --- | --- | --- | --- | --- | --- | --- | --- | --- | --- | --- | --- | --- | --- | --- | --- | --- | --- | --- | --- |
| COc1ccc(/C=C2/N=C(c3ccccc3)N(c3c(C)n(C)n(-c4ccccc4)c3=O)C2=O)cc1OC | > 100 | > 100 | > 100 | > 100 | > 100 | > 100 | > 100 | > 100 | > 100 | > 100 | > 100 | > 100 | 37.1 | > 100 | > 100 | > 100 | 51.7 | > 100 | > 100 | > 100 |
| COc1ccc(-c2nc3ccc(-c4nc5ccc(N6CCN(c7ccccc7)CC6)cc5[nH]4)cc3[nH]2)cc1OC | 1.69 | 6.32 | 1.81 | 4.15 | 2.2 | 4.42 | 2.04 | 6.58 | 1.73 | 3.32 | 2.04 | 3.64 | 2.18 | 8.02 | 1.83 | 3.46 | 1.47 | 3.31 | 1.62 | 3.12 |
| COc1c(OC[C@H](O)CN2CCOCC2)ccc2c3n(c(=NC(=O)c4cccnc4C)nc12)CCN3 | 27.8 | > 50 | > 50 | > 50 | 0.0941 | > 50 | 1.41 | > 50 | 14.1 | > 50 | 0.432 | > 50 | 0.859 | > 50 | 6.72 | > 50 | > 50 | > 50 | 0.399 | > 50 |
| CNCC#Cc1c(F)ccc2c1/C(=C/c1[nH]ccc1OC)C(=O)N2 | 0.181 | 1.48 | 0.299 | 1.17 | 0.098 | 1.89 | 0.307 | 2.68 | 0.156 | 1.41 | 0.516 | 2.74 | 0.0238 | 0.521 | 0.136 | 2.92 | 0.21 | 1.42 | 0.215 | 3.27 |
| CCCC(=O)Nc1cc2c3c(c1)CCCN3CCC2 |  | > 10 |  | > 10 |  | > 10 |  | > 10 |  | > 10 |  | > 10 |  | > 10 |  | > 10 |  | > 10 |  | > 10 |
| COc1ccc2[nH]cc(C3(c4c[nH]c5ccc(OC)cc45)C(=O)Nc4ccc(F)cc43)c2c1 | 2.41 | 6.77 | 1.81 | 3.77 |  |  | 3.09 | 13 | 1.97 | 4.73 | 2.15 | 4.42 | 2.29 | 10.6 | 3.71 | 13.1 | 1.98 | 4.77 | 3.39 | 12.5 |
| Cc1ncc(C(=O)Nc2ccc(CN3CCN(C)CC3)c(C(F)(F)F)c2)cc1C#Cc1cnc(N)c2ccncc12 | 0.783 | 2.5 | 1.14 | 2.5 | 1.6 | 4.19 | 1.38 | 3.18 | 1.43 | 2.86 | 1.67 | 5.33 | 1.11 | 2.66 | 1.1 | 3.27 | 1.6 | 2.98 | 1.35 | 3.3 |
| CO/N=C(\COc1ccc2c(c1)oc(=O)c1cc(OC)ccc12)c1ccc(OC)cc1 | > 100 | > 100 | > 100 | > 100 | > 100 | > 100 | > 100 | > 100 | > 100 | > 100 | > 100 | > 100 | > 100 | > 100 | > 100 | > 100 | > 100 | > 100 | > 100 | > 100 |
| Cc1nn(-c2ccc(Cl)cc2)c2nc3c(nc12)C(=O)c1ccccc1-3 | > 100 | > 100 | > 100 | > 100 |  |  | 13.7 | > 100 | > 100 | > 100 | > 100 | > 100 | > 100 | > 100 | > 100 | > 100 | > 100 | > 100 | 75.3 | > 100 |
| COc1ccc(C(=O)/C=C/c2cc(-c3cc(OC)c(OC)c(OC)c3)n[nH]2)cc1OC | 1.84 | 3.69 | 0.184 | 0.39 | 1.33 | 2.6 | 1.44 | 2.77 | 1.34 | 2.71 | 1.68 | 3.17 | 2.2 | 5.46 | 0.55 | 1.84 | 1.65 | 3.03 | 1.4 | 2.86 |
| CCSc1ncnc2c1ncn2C1OC(CO)C(O)C1O (stereo unspecified) | 0.589 | > 100 | 0.648 | > 100 | 1.56 | > 100 | 1.47 | > 100 | 0.482 | > 100 | 0.312 | > 79.7 | 0.272 | > 55.4 | 0.129 | 32.5 | 2.83 | > 100 | 0.449 | > 100 |
| Cn1cc(C2=C(c3cn(CCCCO)c4ccccc34)C(=O)NC2=O)c2ccccc21 | 16.6 | > 25 | 10.4 | > 25 | 10.1 | > 25 | 9.95 | > 25 | 8.81 | > 25 | 8.09 | > 25 | 11.8 | > 25 | 10 | > 25 | 6.26 | > 20.5 | 8.81 | > 25 |
| Cc1ccc(NC(=O)CC2CC2)cc1-c1ccc(C(=O)NCC2CC2)cc1 | > 25 | > 25 | > 25 | > 25 | > 25 | > 25 | > 25 | > 25 | > 19.5 | > 25 | > 25 | > 25 | > 25 | > 25 | > 25 | > 25 | > 17.5 | > 25 | > 25 | > 25 |
| O=C1OCC2=C1C(c1cccc(Br)c1)c1cc3c(cc1N2CCO)CCC3 (stereo unspecified) | 0.078 | 5.78 | 0.0148 | 0.521 | 0.736 | 11.3 | 0.0888 | 7.11 | 0.0132 | 0.0423 | 0.0339 | 0.153 | 0.22 | 8.15 | 0.137 | 0.466 | 0.0482 | 0.428 | 0.201 | 6.22 |
| COc1cc(-n2cc(-c3ccc(F)cc3)[nH]c2=O)cc(OC)c1OC |  |  | > 100 | > 100 | > 100 | > 100 | > 100 | > 100 | > 100 | > 100 | > 100 | > 100 | > 100 | > 100 | > 100 | > 100 | > 100 | > 100 | > 100 | > 100 |
| O=C(c1ccccc1Br)C(F)(F)F |  | > 100 |  | > 100 |  | > 100 |  | > 100 |  | > 100 |  | > 100 |  | > 100 |  | > 100 |  | > 100 |  | > 100 |
| Clc1ccc2[nH]cc(-c3nnnn3-c3ccccc3)c2c1 | 9.74 | 41.8 | 18.7 | > 92.5 | 7.29 | > 31.6 | 28 | > 100 | 1.64 | 4.16 | 6.66 | > 42.5 |  | 1.16 | 24.5 | > 76.6 | 9.97 | 28.8 | 29.6 | > 100 |
| [Cl][Hg][c]1cc[c]([Hg][Cl])o1 | 2.53 | 12 | 0.367 | 1.69 | 1.7 | 3.1 | 13.5 | 28.4 | 3.4 | 14.4 |  |  |  |  | 3.81 | 16.1 | 2.43 | 9.6 | 4.5 | 15.1 |
| CCOC(=O)Nc1ccc(C)c(NC(=O)OCC)c1 |  | > 100 |  | > 100 |  | > 100 |  | > 100 |  | > 100 |  | > 100 |  | > 100 |  | > 100 |  | > 100 |  | > 100 |
| COc1cc2c3c(n(C)c(=O)c2cc1OC)-c1cc2c(cc1/C3=C\CN)OCO2 |  |  | 0.835 | > 43.5 | 4.04 | 32.8 | 0.189 | 17 | 0.819 | 33.8 | 1.58 | 14.8 | 0.132 | 1.81 | 0.346 | 37.1 | 0.296 | 2.32 | 0.314 | 17.3 |
| COc1ccc2c(c1)C(=O)c1c-2c(N2CCN(C(=O)CNCCNCCO)CC2)nc2ccccc12 | 1.82 | 3.33 | 1.81 | 4.08 | 13.7 | 32.9 |  |  | 8.18 | 28.5 | 11.7 | 31.2 | 12.8 | 35 | 6.17 | 18.4 | 13.3 | 27.5 | 1.77 | 3.34 |
| CCOC(=O)Nc1ccc(-c2nc(-c3cccc(OCCN4CCOCC4)c3)c(-c3ccnc(Br)c3)[nH]2)cc1 | 2.97 | 13.7 | 3.31 | > 100 | 4.26 | > 100 | 3.1 | > 100 | 3.07 | 47.6 | 4.3 | > 100 |  |  | 4.05 | > 100 | 1.74 | 3.15 | 1.6 | 4.12 |
| CN(C)CC[PH+](c1ccccc1)c1ccccc1.CN(C)CC[PH+](c1ccccc1)c1ccccc1.[Cl-].[Pd+2] | > 100 | > 100 | 73.6 | > 100 | > 100 | > 100 |  |  | > 100 | > 100 | > 100 | > 100 | > 100 | > 100 | > 100 | > 100 | > 100 | > 100 | > 100 | > 100 |
| CN(C)C(n1cc2c(c1)-c1ccc(Cl)cc1C(c1ccccc1F)=NC2)n1cc2c(c1)-c1ccc(Cl)cc1C(c1ccccc1F)=NC2 |  | > 100 |  | > 100 |  |  |  | > 100 |  | > 100 |  | > 100 |  | > 100 |  | > 100 |  | > 100 |  | > 100 |
| CC[C@H]1[C@@H]2C=C[C@@H]3[C@H]4C/C=C\C(=O)NCCC[C@@H]5NC(=O)/C(=C(O)/C=C/[C@@H]4C[C@@H]3[C@H]2C[C@H]1C)C5=O | 1.58 | 3.08 | 6.7 | 15.7 | 1.35 | 2.71 | 1.4 | 3.03 | 0.982 | 2.25 | 0.202 | 0.556 |  |  | 0.715 | 1.94 | 0.9 | 2.2 | 0.44 | 1.59 |
| COc1ccc(Nc2nnc(-c3cc(O)ccc3O)s2)cc1 | > 50 | > 50 | 16.1 | > 50 | 48.4 | > 50 |  |  | 9.22 | 19.1 | > 50 | > 50 | 34.2 | > 50 | > 50 | > 50 | 10.3 | 27.2 | > 50 | > 50 |
